Where “and” joins values, the source holds several entries; their conditions need not be identical. Equal entries are not always repeated. Entries after “also recorded” stand apart in the source; their conditions may differ. Where two headings read alike, the source gives them in different places.
Assay: Plasma kinetics in rat following intravenous and oral administration;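 as to AUC0-∞: parameter is AUC from zero to infinity in ng·h/mL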
Assay type: in vivo, Sprague Dawley rats
Method: This study determined the intravenous pharmacokinetics and oral bioavailability of compound 1 of the invention (see FIG. 1A, structure no. 1), compound 2 of the invention (see FIG. 1D, structure no. 19) and compound 3 of the invention (see FIG. 1I, structure no. 53) following administration to Sprague Dawley rats at a dose level of 10 mg/kg.
Six groups of 3 male rats received either a single intravenous or single oral administration of compound 1, 2 or 3 of the invention at a dose level of 10 mg/kg. Blood samples were obtained at various times after dosing. Plasma samples were analysed for unchanged test item using a suitable LC-MS/MS method. Pharmacokinetic parameters were estimated from individual plasma concentrations.
Eighteen male rats each received either a single intravenous or a single oral administration of either compound 1, 2 or 3 at a dose level of 10 mg/kg. The formulation was orally administered to each animal by gastric gavage and intravenously administered to each animal via a tail vein. The dose was administered at a dose volume of 5 mL/kg. The formulations were administered to each animal according to the details in the following table:
Blood samples (ca 0.3 mL) were removed from the femoral vein of each animal into tubes containing lithium heparin as anticoagulant.
Blood samples were collected from 3 rats at the following times after dose administration: • 3, 6, 15, 45 min and 1.5, 2.5, 4, 6, 8, 24 h post dose. Oral Administration
Blood samples were collected from 3 rats at the following times after dose administration: • 5, 15, 45 min and 1.5, 2.5, 4, 6, 8, 24 h post dose. Processing of Blood Samples
Pharmacokinetic parameters of compound 1, 2 and 3 were derived by non-compartmental analysis using WinNonLin Pro version 5.0.1 (Pharsight 2005). The following parameters were derived, where appropriate, from the individual plasma concentration versus time profiles:
• F % The absolute oral bioavailability calculated as [AUC0-t (oral)*Dose(iv)/AUC0-t (iv)*Dose (oral)]*100 based on mean values derived after oral and intravenous administration Consideration was given to the estimation of λz and corresponding t1/2 values. Three or more points are required within the terminal phase for λz and t1/2 to be estimated. The following additional variables were tabulated to aid identification of potentially unreliable estimates of t1/2 and AUC:
Pharmacokinetic parameters were reported as geometric mean except Tmax which was reported as the median. Geometric coefficient of variation was calculated as: […]
Actual sampling times were used for all calculations of pharmacokinetic parameters. Plasma concentrations that were below the limit of quantification were taken as zero for the pharmacokinetic analysis.

[1] = intravenous 10 mg/kg, male rats, individual animals, acetate, 10 mg/kg
[2] = male, Sprague Dawley, rat, plasma, iv, 10 mg/kg, single intravenous 10 mg/kg, male rats, individual animals, read-out: Sample Concentration in plasma
[3] = male, Sprague Dawley, rat, plasma, iv, 10 mg/kg, single intravenous 10 mg/kg, male rats, mean of 3, read-out: Mean Concentration in plasma

- bioavailability (Sprague Dawley, rat, plasma, 10 mg/kg oral vs intravenous, male rats, from mean AUC0-t, read-out: Mean absolute oral bioavailability): 3.2%
- Between-animal variability in systemic exposure, coefficient of variation (CV) of AUC0-t (intravenous 10 mg/kg, male rats): less than 30%
- AUC0-∞ [1]: 1.868 µg·h/mL and 2.468 µg·h/mL
- AUC(0-t) [1]: 1.701 µg·h/mL and 2.445 µg·h/mL
- C0 [1]: 4.747 µg/mL and 2.637 µg/mL
- CL [1]: 5.427 L/h/kg and 4.133 L/h/kg
- MRT [1]: 2.84 h and 4.84 h
- Vss [1]: 15.408 L/kg and 20.008 L/kg
- t1/2 [1]: 2.718 h and 3.8896 h
- Systemic clearance (in words) (intravenous 10 mg/kg, rats): high
- systemic plasma clearance (CL) compared with hepatic blood flow (in words) (intravenous 10 mg/kg, hepatic blood flow 3312 mL/h/kg): greater than hepatic blood flow
- AUC(0-inf) (male, Sprague Dawley, rat, plasma, iv, 10 mg/kg, intravenous 10 mg/kg, male rats, Arithmetic Mean): 2.03 µg·h/mL
- AUC(0-t) (male, Sprague Dawley, rat, plasma, iv, 10 mg/kg, intravenous 10 mg/kg, male rats, Arithmetic Mean, read-out: AUC0-t): 1.88 µg·h/mL
- C0 (male, Sprague Dawley, rat, plasma, iv, 10 mg/kg, intravenous 10 mg/kg, male rats, Arithmetic Mean, read-out: C0): 3.47 µg/mL
- clearance (male, Sprague Dawley, rat, plasma, iv, 10 mg/kg, intravenous 10 mg/kg, male rats, Arithmetic Mean, read-out: CL (converted)): 5.13 L/h/kg
- MRT (male, Sprague Dawley, rat, plasma, iv, 10 mg/kg, intravenous 10 mg/kg, male rats, Arithmetic Mean, read-out: MRT): 3.74 h
- Vd (male, Sprague Dawley, rat, plasma, iv, 10 mg/kg, intravenous 10 mg/kg, male rats, Arithmetic Mean, read-out: Vss): 18.7 L/kg
- half-life (male, Sprague Dawley, rat, plasma, iv, 10 mg/kg, intravenous 10 mg/kg, male rats, Arithmetic Mean, read-out: t1/2 (converted)): 3.29 h
- AUC(0-inf) (male, Sprague Dawley, rat, plasma, iv, 10 mg/kg, intravenous 10 mg/kg, male rats, Geometric mean): 2.01 µg·h/mL
- AUC(0-t) (male, Sprague Dawley, rat, plasma, iv, 10 mg/kg, intravenous 10 mg/kg, male rats, Geometric mean, read-out: AUC0-t): 1.84 µg·h/mL
- C0 (male, Sprague Dawley, rat, plasma, iv, 10 mg/kg, intravenous 10 mg/kg, male rats, Geometric mean, read-out: C0): 3.36 µg/mL
- clearance (male, Sprague Dawley, rat, plasma, iv, 10 mg/kg, intravenous 10 mg/kg, male rats, Geometric mean, read-out: CL (systemic plasma clearance) (converted)): 5.07 L/h/kg
- MRT (male, Sprague Dawley, rat, plasma, iv, 10 mg/kg, intravenous 10 mg/kg, male rats, Geometric mean, read-out: MRT): 3.65 h
- Vd (male, Sprague Dawley, rat, plasma, iv, 10 mg/kg, intravenous 10 mg/kg, male rats, Geometric mean, read-out: Vss (mean apparent volume of distribution)): 18.5 L/kg
- half-life (male, Sprague Dawley, rat, plasma, iv, 10 mg/kg, intravenous 10 mg/kg, male rats, Geometric mean, read-out: t1/2 (mean apparent terminal half-life) (converted)): 3.25 h
- AUC(0-inf) (male, Sprague Dawley, rat, plasma, iv, 10 mg/kg, intravenous 10 mg/kg, male rats, Median): 1.87 µg·h/mL
- AUC(0-t) (male, Sprague Dawley, rat, plasma, iv, 10 mg/kg, intravenous 10 mg/kg, male rats, Median, read-out: AUC0-t): 1.7 µg·h/mL
- C0 (male, Sprague Dawley, rat, plasma, iv, 10 mg/kg, intravenous 10 mg/kg, male rats, Median, read-out: C0): 3.02 µg/mL
- clearance (male, Sprague Dawley, rat, plasma, iv, 10 mg/kg, intravenous 10 mg/kg, male rats, Median, read-out: CL (converted)): 5.43 L/h/kg
- MRT (male, Sprague Dawley, rat, plasma, iv, 10 mg/kg, intravenous 10 mg/kg, male rats, Median, read-out: MRT): 3.53 h
- Vd (male, Sprague Dawley, rat, plasma, iv, 10 mg/kg, intravenous 10 mg/kg, male rats, Median, read-out: Vss): 20 L/kg
- half-life (male, Sprague Dawley, rat, plasma, iv, 10 mg/kg, intravenous 10 mg/kg, male rats, Median, read-out: t1/2 (converted)): 3.25 h
- AUC(0-inf) (male, Sprague Dawley, rat, plasma, iv, 10 mg/kg, intravenous 10 mg/kg, male rats, individual animals): 1.75 µg·h/mL
- AUC(0-t) (male, Sprague Dawley, rat, plasma, iv, 10 mg/kg, intravenous 10 mg/kg, male rats, individual animals, read-out: AUC0-t): 1.5 µg·h/mL
- C0 (male, Sprague Dawley, rat, plasma, iv, 10 mg/kg, intravenous 10 mg/kg, male rats, individual animals, read-out: C0): 3.02 µg/mL
- clearance (male, Sprague Dawley, rat, plasma, iv, 10 mg/kg, intravenous 10 mg/kg, male rats, individual animals, read-out: CL (converted)): 5.83 L/h/kg
- MRT (male, Sprague Dawley, rat, plasma, iv, 10 mg/kg, intravenous 10 mg/kg, male rats, individual animals, read-out: MRT): 3.53 h
- Vd (male, Sprague Dawley, rat, plasma, iv, 10 mg/kg, intravenous 10 mg/kg, male rats, individual animals, read-out: Vss): 20.6 L/kg
- half-life (male, Sprague Dawley, rat, plasma, iv, 10 mg/kg, intravenous 10 mg/kg, male rats, individual animals, read-out: t1/2 (converted)): 3.25 h
- concentration at 0.05 h (male, Sprague Dawley, rat, plasma, iv, 10 mg/kg, single intravenous 10 mg/kg, male rats, 0.05 h (3 min), mean of 3, read-out: Mean Concentration in plasma): 2.35 µg/mL
- concentration at 0.05 h (male, Sprague Dawley, rat, plasma, iv, 10 mg/kg, single intravenous 10 mg/kg, male rats, 0.05 h, individual animals, read-out: Sample Concentration in plasma): 1.64 µg/mL
- concentration at 0.1 h [2]: 1.59 µg/mL
- concentration at 0.1 h [3]: 1.34 µg/mL
- concentration at 0.25 h [2]: 0.847 µg/mL
- concentration at 0.25 h [3]: 0.724 µg/mL
- concentration at 0.75 h [2]: 0.264 µg/mL
- concentration at 0.75 h [3]: 0.278 µg/mL
- concentration at 1.5 h [2]: 0.25 µg/mL
- concentration at 1.5 h [3]: 0.217 µg/mL
- concentration at 2.5 h [2]: 0.195 µg/mL
- concentration at 2.5 h [3]: 0.191 µg/mL
- concentration at 4 h [2]: 0.122 µg/mL
- concentration at 4 h [3]: 0.132 µg/mL
- concentration at 6 h [2]: 0.0839 µg/mL
- concentration at 6 h [3]: 0.086 µg/mL
- concentration at 8 h (male, Sprague Dawley, rat, plasma, iv, 10 mg/kg, single intravenous 10 mg/kg, male rats, 8 h, mean, read-out: Mean Concentration in plasma): 0.0651 µg/mL
Compound: N=C(N)NN=CC=Cc1cccn1-c1ccccc1[N+](=O)[O-] [Compound 2, [1-(2-nitrophenyl)-1H-pyrrol-2-yl-allylideneamino]guanidinium acetate]
- volume of distribution compared with total body water (in words) (intravenous 10 mg/kg, rats, total body water 668 mL/kg, acetate, 10 mg/kg): exceeded the total body water; also recorded: markedly greater than that of the total body water
